Data reported in ChEMBL document CHEMBL3507680, “University of Dundee, Gates Library screen for HepG2 cell viability”.

Test: Human HepG2 cell viability assay in 384 well format
Format: toxicity, cell-based
Set-up: dose 125 nL, time 70.5 hour; concentration not given beside the values
Settings: HepG2 cells, read-out: Inhibition

SMILES | cytotoxicity at 70.5 h [%]
O=C(c1cn(CC(=O)N2CCCCC2)c2ccccc12)C1CC1 | 24
O=C1NC(c2ccccc2)=N[C@@]12CC[C@@H]1CN(Cc3ccco3)C[C@@H]12 | -5.19
O=C(NCc1ccco1)[C@@]12CCO[C@@H]1CCN(CCN1CCCC1)C2 | 8.62
Cc1cnc(N2CC3(CCN(C(=O)c4ccoc4)C3)C2)nc1 | -2.31
Cc1cccc(CN2C[C@@H]3CN(C(=O)NC(C)C)C[C@@H]3C2=O)c1 | -11.4
Cc1cc(C(=O)N2C[C@@H]3[C@@H](C2)OCC(=O)N3CC2CC2)no1 | -13.6
O=C(c1cccs1)N1C[C@H]2CC[C@@]3(N=C(c4ccccc4)NC3=O)[C@H]2C1 | -4.38
CN(C)[C@@H]1CCN(c2ncccn2)[C@H]1Cc1ccccc1 | -6.06
CC(=O)N1[C@H](Cn2cncn2)C[C@@H]2CN(c3ccc(C)nn3)CC[C@@H]21 | -6.42
COCC1CN(C(=O)c2cccn2C)Cc2ncnn2C1 (configuration not stated) | -3.03
Cc1ccc(CN2CC[C@H]3C[C@@H](c4nc(C5CC5)cs4)O[C@@H]3C2)o1 | -7.46
Cc1ccc(N2CC3(CCN(C(=O)c4ccoc4)C3)C2)nn1 | -12.3
Cc1nc([C@@H]2C[C@@H]3CCN(C(=O)c4occc4C)C[C@H]3O2)no1 | 23.8
CCc1ncnc2c1CCN(C(=O)N1CCCC1)CC2 | 20.9
CC(C)NC(=O)N1CCC2(CC(C(=O)NCc3cccnc3)=NO2)C1 (configuration not stated) | -11.9
COCCO[C@@H]1C[C@H]2CN(C(=O)c3ccc(C)nc3)CCN2C1 | -9.86
O=C(NCC1CC1)C1=NOC2(CCN(Cc3ccc4c(c3)OCO4)C2)C1 (configuration not stated) | -5.94
COCCO[C@@H]1C[C@H]2CN(C(=O)c3cnccn3)CCN2C1 | -6.2
CN1C(=O)C(c2cccnc2)CC12CCN(C(=O)c1cccn1C)CC2 (configuration not stated) | -10.3
Cc1cc(C(=O)N2C[C@@H]3COC[C@]3(c3nnc(C4CC4)o3)C2)on1 | -19
O=C(NCC1CC1)C1CN(C(=O)c2cccs2)CC12CCOCC2 (configuration not stated) | -13.2
c1cnc(NCc2noc3c2CN(C2CCOCC2)CC3)nc1 | -10.6
CN(C)S(=O)(=O)N1CCC2(COCc3cnc(-c4ccccc4)nc32)C1 (configuration not stated) | -23.1
COc1cccc(C(=O)N2CCc3ncnc(C)c3CC2)c1 | -5.4
Cn1cc(CN2CC3(CCN(C(=O)c4ccoc4)C3)C2)cn1 | -6.02
Cc1ccc(N2CC3(CCN(c4nccs4)C3)C2)nn1 | -4.92

SMILES | cytotoxicity at 70.5 h [%]
Cc1nn(C)cc1-c1cc(C(=O)N2CCc3ncc(Cl)cc3C2)no1 | 0.792
Cc1nn(C)cc1-c1cc(C(=O)N2CCc3ncc(Cl)cc3C2)on1 | -2.35
Cc1c(-c2cc(C(=O)N3CCc4ncc(Cl)cc4C3)on2)cnn1C | 35
Cn1nccc1C(=O)N1CCC(c2ncc(Cl)cc2S(C)(=O)=O)CC1 | 18.3
COCCC(=O)N1CCC2(CC1)CN(C(C)=O)Cc1ccccc1O2 | 0.622
COCCC(=O)N1Cc2ccccc2OC2(CCOCC2)C1 | -0.482
Cc1ncc(-c2ccncc2)c(C2CCN(C(=O)c3ccco3)CC2)n1 | -2.42
Nc1ncc(CN2CCC(O)(c3ccccc3F)CC2)cn1 | -2.71
COCC(=O)N1CCC2(CC1)CN(S(C)(=O)=O)Cc1ccccc1O2 | -0.505
Cc1cc(C(F)(F)F)n2nc(C3CCN(S(C)(=O)=O)CC3)cc2n1 | -7.35
Cc1cc(C(F)(F)F)n2nc(C3CCN(S(=O)(=O)N(C)C)CC3)cc2n1 | -0.288
Cn1ncc2c1CCCN(C(=O)C1CC1)C2 | 14.3
Cc1nn(C)cc1CN1CCCC(n2c(=O)oc3ccc(Cl)cc32)C1 (configuration not stated) | 46.8
CCCNS(=O)(=O)c1cc2c3c(c1)c(C)cc(=O)n3CCC2 | -0.859
CCCc1cc(C(=O)NC(C)c2ccccc2)n(C)n1 (configuration not stated) | -2.33
Cc1ccnn1CCNC(=O)c1cnc(N(C)C)nc1 | -4.92
Cc1nc2c(c(NCCCN3CCOCC3)n1)CCN(C)C2 | 15.4
Cc1nc2c(c(NCCN3CCOCC3)n1)CCN(C)C2 | 32.4
CNc1cc(C)nc(C2COCCN2CCOc2ccc(F)cc2)n1 (configuration not stated) | -3.24
CNc1cc(C)nc(C2COCCN2CCc2ccccc2)n1 (configuration not stated) | -1.48
CCCn1nc(C)c(C(=O)N(C)[C@@H]2CC[C@@H](OC)[C@@H]2O)c1C | -3.89
CC(C)(C)c1ccc(CN2C[C@H]3C[C@H](O)C[C@H]3C2)c(OCC(N)=O)c1 | -2.7
CNC(=O)C1(CCCc2cnccn2)CCN1Cc1ccc(C)cc1 (configuration not stated) | -5.64
CC(=O)N1CCN(c2cc(C)ncn2)CC(CO)C1 (configuration not stated) | -3.4
CC(=O)N1CCC1c1cc(N2CCSCC2)nc(C)n1 (configuration not stated) | -1.98
COc1ccc2c(c1)C(=O)NC1(CC2)CCN(Cc2cccnc2)C1 (configuration not stated) | -2.38

SMILES | cytotoxicity at 70.5 h [%]
CC(=O)N1CCC(c2n[nH]cc2-c2ccnc(N)c2)C1 (configuration not stated) | 15.7
O=C(c1cnccn1)N1CCCC(Cc2ccccn2)C1 (configuration not stated) | 4.02
Cc1c[nH]c(C2COCCN2C(=O)c2n[nH]c(=O)c3ccccc23)n1 (configuration not stated) | -13.4
Cc1cc(N2CCN(Cc3cn(C)nc3C)CC2)cc(C2CCCN2)n1 (configuration not stated) | -1.66
Cn1cnc2c(N3CCCC3)nc(C3CCNCC3)cc21 | -17
Cc1ccc(C(=O)N2CCC3(CC2)CC(c2ccccc2)C(=O)N3)cn1 (configuration not stated) | 0.473
Cc1occc1C(=O)N1CCC2(CCN(Cc3nccs3)C2)CC1 | -11
CS(=O)(=O)N1CC[C@H]2O[C@H](C(=O)NCCc3ccncc3)CC[C@H]21 | 14.6
O=C(NC1CC1)N1CCc2ncnc(-c3ccncc3)c2CC1 | 18.5
Cn1cc(CN2CC[C@H]3O[C@H](C(=O)NCc4ccco4)CC[C@H]32)cn1 | -12.4
Cc1ccc(CN2CC(C(=O)N3CCCC3)C3(CCOCC3)C2)s1 (configuration not stated) | -9.91
O=C(Nc1ccccc1)C1CN(CC2CC2)CC12CCOCC2 (configuration not stated) | -17.6
O=C(c1cnccn1)N1CCc2ncnc(-c3cccnc3)c2CC1 | -16.1
COCC(=O)N1CCCn2c(CN3CCCCC3)nnc2C1 | -7.69
CCOCC1CN(Cc2cccc(C#N)c2)Cc2nccn2C1 (configuration not stated) | -1.89
CS(=O)(=O)NCc1cnc2n1CCN(Cc1ccsc1)CC2 | 8.08
CC(C)COCc1cncc2c1CCN(Cc1cnn(C)c1)C2 | -13.8
c1cncc(COCc2nnc3n2CCN(Cc2ccoc2)C3)c1 | -9.66
CN(Cc1ccco1)C[C@H]1OC[C@@H]2CCN(Cc3cccs3)C[C@@H]21 | -13.4
O=C(c1cccnc1)N1CC[C@H](OCC2CC2)[C@@H]1Cc1cccnc1 | -5.08
CC(C)Nc1nc2c(cc1C(=O)N(C)C)CCNCC2 | -6.7
CC(C)N(C)Cc1cn2c(n1)CN(Cc1ccsc1)CC2 | 10.4
CN(Cc1ccco1)C[C@H]1OC[C@@H]2CCN(Cc3cccnc3)C[C@@H]21 | -7.43
CCc1cc(C(F)(F)F)n2nc(C3CCCN3C3CCSCC3)cc2n1 (configuration not stated) | -2.16
CCN(CC)CCCNc1nc(C)nc2c1CCN(C)C2 | -1.66
